From EPA's ToxValDB 9.5 (doi:10.2903/j.efsa.2010.1555)

Tests used:
Apis mellifera = conditions: acute; oral; unspecified; mortality
Canidae = conditions: chronic; duration: 1 years; oral; Dog Other
Coturnix coturnix = conditions: acute; oral; diet; mortality
Coturnix japonica = conditions: reproduction developmental
Daphnia magna = conditions: chronic/long-term; duration: 21 days; reproduction
Tagia sp. = conditions: acute; duration: 14 days; mortality
[1] = reproduction developmental, body weight

For `CCC([O-])=C1C(=O)CC(C(=O)[O-])CC1=O.[Ca+2]` (stereo unspecified) [Prohexadione-calcium], the LD50 (Anas platyrhynchos; acute, oral, unspecified, mortality) was over 2000 mg/kg, the NOEC (Anas platyrhynchos; reproductive) was 116 mg/kg-day and the LC50 (Anas platyrhynchos; short-term, oral, feed, mortality) was over 1350 mg/kg-day. For the same molecule, the LD50 (Apis mellifera) was over 100 µg/piece, the NOAEL (Canidae) was 20 mg/kg-day and the LD50 (Colinus virginianus; acute, oral, mortality) was over 2000 mg/kg. The NOEC (Colinus virginianus; reproduction developmental) was 48.8 mg/kg-day, the LC50 (Coturnix coturnix) was over 1210 mg/kg-day and the NOEC (Coturnix japonica) was 126 mg/kg-day. The NOEC (Daphnia magna) was 100 mg/L, the LC50 (Oncorhynchus mykiss; acute, duration: 96 hours, mortality) was over 100 µg/mL and the NOEC (Oncorhynchus mykiss; chronic/long-term, duration: 28 days, growth) was 100 mg/L. For the same molecule, the LD50 (Rattus norvegicus; acute, oral, mortality) was over 5000 mg/kg, the NOAEL (Rattus norvegicus; [1]) was 35 mg/kg-day and the NOEL (Rattus norvegicus; [1]) was 35 mg/kg-day. For the same molecule, the LC50 (Tagia sp.) was over 1000 mg/kg.
